Reference: US10919885B2, “Compounds and uses thereof” (Yumanity Therapeutics, Inc., priority 2018, dated 2021)
Where “and” joins values, the source holds several entries; their conditions need not be identical. Equal entries are not always repeated.

Assays:
[1] = target: human SCD1 (Homo sapiens (Human), UniProt O00767); assay: Yeast growth assay, strain expressing human SCD1 as the sole desaturase (reduced growth as surrogate for SCD inhibition); assay type: cell-based; conditions: yeast with OLE1 deleted expressing human SCD1 from a plasmid; growth read as OD600 after 40 h at 30° C.; top drug concentration 33.3 μM
Summary of the method: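 Human SCD1 or SCD5 expressed from a plasmid in OLE1-deleted yeast as the sole desaturase. Cells washed free of Tween and fatty acids, grown with compound in SD-Ura glucose medium 40 h at 30 °C; growth measured as OD600, reduced growth taken as SCD inhibition.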

[2] = target: human SCD5 (Homo sapiens (Human), UniProt Q86SK9); assay: Yeast growth assay, strain expressing human SCD5 as the sole desaturase (reduced growth as surrogate for SCD inhibition); assay type: cell-based; conditions: yeast with OLE1 deleted expressing human SCD5 from a plasmid; growth read as OD600 after 40 h at 30° C.; top drug concentration 33.3 μM
Method: Strains expressing SCD1 or SCD5 as the sole desaturase, the human SCD1 and SCD5 genes were used to evaluate inhibition of SCD1/SCD5 using reduced growth as a surrogate for SCD inhibition. These yeast strains express human SCD1 or SCD5 from a plasmid harbored in a strain in which the yeast OLE1 gene is deleted.
All compound profiling experiments were performed using the same basic protocol. Yeast were cultured using standard techniques in complete synthetic media lacking uracil and containing yeast nitrogen base supplemented with 2% (w/v) glucose (SD-Ura) Starter cultures were inoculated in 3 mL SD-Ura media containing 0.01% tween and 0.2 mM palmitoleic and oleic acid. Cultures were incubated overnight in a 30° C. shaker incubator (225 rpm). Saturated morning cultures were centrifuged, washed in SD-Ura media lacking TWEEN-20 and fatty acids, and then diluted 1:20 in fresh SD-Ura media also lacking TWEEN-20 and fatty acids.
Compound administration was performed in two separate steps. First, 15 μL of SD-Ura was dispensed into clear 384-well assay plates using a MULTIDROP™ Combi reagent dispenser. […] The cultures described above were centrifuged and washed with media lacking TWEEN-20 or oleic and palmitoleic acids.
After yeast delivery, assay plates were incubated under humidified conditions at 30° C. for 40 h. Yeast growth was monitored by reading the OD600 of each well using a microplate reader (Perkin Elmer EnVision™).

human SCD5, sequence (Q86SK9 whole entry): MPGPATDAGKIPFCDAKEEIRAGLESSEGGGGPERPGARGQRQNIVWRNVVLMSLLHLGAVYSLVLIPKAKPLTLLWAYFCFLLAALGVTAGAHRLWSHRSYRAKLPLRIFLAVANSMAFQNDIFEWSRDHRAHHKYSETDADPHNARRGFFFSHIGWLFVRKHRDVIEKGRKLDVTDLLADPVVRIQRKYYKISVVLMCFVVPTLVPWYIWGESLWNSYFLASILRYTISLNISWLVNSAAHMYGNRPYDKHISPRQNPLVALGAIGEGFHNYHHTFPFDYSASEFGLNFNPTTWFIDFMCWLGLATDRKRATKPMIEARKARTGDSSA
human SCD1, sequence (O00767 whole entry): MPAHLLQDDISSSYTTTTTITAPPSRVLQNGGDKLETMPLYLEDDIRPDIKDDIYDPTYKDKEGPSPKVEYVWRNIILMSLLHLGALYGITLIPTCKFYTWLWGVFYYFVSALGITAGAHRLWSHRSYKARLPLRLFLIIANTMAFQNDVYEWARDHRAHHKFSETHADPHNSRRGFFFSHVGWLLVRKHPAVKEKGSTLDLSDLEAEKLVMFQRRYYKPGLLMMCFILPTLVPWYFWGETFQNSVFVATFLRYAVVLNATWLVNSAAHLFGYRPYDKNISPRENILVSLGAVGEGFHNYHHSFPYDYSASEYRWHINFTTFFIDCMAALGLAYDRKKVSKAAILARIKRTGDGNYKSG

SMILES | IC50 [1] | IC50 [2]
N#Cc1ccccc1-c1cc(C(=O)N2CCC(c3ccccc3)CC2)no1 [Compound 326, 2-(3-(4-phenylpiperidine-1-carbonyl)isoxazol-5-yl)benzonitrile] | > 45 µM | 5.7 µM
O=C(c1cc(-c2ccncc2)on1)N1CCC(c2ccccc2)CC1 [Compound 313, (4-phenylpiperidin-1-yl)(5-(pyridin-4-yl)isoxazol-3-yl)methanone, trifluoroacetic acid] | 0.41 µM | 1.54 µM
CNC(=O)c1ccccc1-c1cc(C(=O)N2CCC(c3ccccc3)CC2)no1 [Compound 301, N-methyl-2-[3-(4-phenylpiperidine-1-carbonyl)isoxazol-5-yl]benzamide] | > 45 µM | 6.58 µM
O=C(c1cc(-c2ccccc2)on1)N1CCC(c2ccccc2)C1 (stereo not drawn) [Compound 330] | > 45 µM | 2.6 µM
Cc1nnc(-c2cc(C(=O)Nc3cnn(Cc4ccccc4)c3)no2)s1 [Compound 163] | > 45 µM | > 45 µM
O=C(Nc1cnn(Cc2ccccc2)c1)c1cc(-c2cncs2)no1 [Compound 131] | > 45 µM | > 45 µM
CC1(c2ccccc2)CCN(C(=O)c2cc(-c3ccc4c(c3)OCO4)on2)CC1 [Compound 290, 1-[5-(2H-1,3-benzodioxol-5-yl)-1,2-oxazole-3-carbonyl]-4-methyl-4-phenylpiperidine] | > 45 µM | 2.94 µM
COc1ccc(C2CCCN2C(=O)c2cc(-c3ccc4ocnc4c3)on2)cc1 (stereo not drawn) [Compound 400] | > 45 µM | > 45 µM
O=C(Nc1cnnc(Oc2ccccc2)c1)c1cc(-c2ccccc2)on1 [Compound 311] | > 45 µM | > 45 µM
O=C(NC1CCN(c2ccccc2)CC1)c1cc(-c2ccco2)on1 [Compound 286] | > 45 µM | > 45 µM
O=C(c1cc(-c2ccc3c(c2)OCO3)on1)N1CC2(C1)CN(c1ccccc1)C2 [Compound 222] | > 45 µM | > 45 µM
CN(C)CCC(c1ccccc1)n1cc(NC(=O)c2cc(-c3ccccc3)on2)cn1 (stereo not drawn) [Compound 65] | > 45 µM | > 45 µM
O=C(c1cc(-c2ccccc2)on1)N1CC2(C=C(c3ccccc3)C2)C1 [Compound 225, (6-phenyl-2-azaspiro[3.3]hept-6-en-2-yl)-(5-phenylisoxazol-3-yl)methanone] | > 45 µM | 6.41 µM
O=C(Nc1cnn(Cc2ccccc2)c1)c1cc(-c2ccccc2F)no1 [Compound 130] | > 45 µM | > 45 µM
O=C(Nc1noc(Cc2ccccc2)n1)c1cc(-c2ccccc2)on1 [Compound 79] | > 45 µM | > 45 µM
O=C(c1cc(-c2ccc3c(c2)OCO3)on1)N1CCC1c1ccccc1 (stereo not drawn) [Compound 204, (5-(benzo[d][1,3]dioxol-5-yl)isoxazol-3-yl)(2-phenylazetidin-1-yl)methanone] | 30 µM and 33.9 µM | 3.5 µM and 2.28 µM
C=C(C)c1cc(C(=O)Nc2cnn(Cc3cc(F)ccc3C(F)(F)F)c2)no1 [Compound 84] | > 45 µM | > 45 µM
O=C(c1cnn(Cc2ccncc2)c1)c1cc(-c2ccccc2)on1 [Compound 138] | > 45 µM | > 45 µM
Cn1ncc2cccc(C3CCCN3C(=O)c3cc(-c4ccc5c(c4)OCO5)on3)c21 (stereo not drawn) [Compound 425] | > 45 µM | > 45 µM
O=C(c1cc(-c2ccccn2)on1)N1CCC(c2cccc(F)c2)C1 (stereo not drawn) [Compound 352] | > 45 µM | 9 µM
COc1ccccc1-c1cc(C(=O)Nc2cnn(Cc3ccccc3)c2)no1 [Compound 136] | > 45 µM | > 45 µM
CN1CCN(c2cc(C(=O)Nc3cnn(Cc4ccccc4)c3)no2)CC1 [Compound 183] | > 45 µM | > 45 µM
O=C(c1cc(-c2ccco2)on1)N1CC2(COC2)C1 [Compound 247] | > 45 µM | > 45 µM
O=C(c1cc(-c2ccccc2)on1)N1CCC(Oc2ccccc2)CC1 [Compound 288, (4-phenoxy-1-piperidyl)-(5-phenylisoxazol-3-yl)methanone] | > 45 µM | 4.16 µM
NC(=O)c1cc(C(=O)Nc2cnn(Cc3cccc(F)c3)c2)no1 [Compound 162] | > 45 µM | > 45 µM
O=C(c1cc(-c2ccc3c(c2)OCO3)on1)N1CCC(c2ccccc2)C1 (stereo not drawn) [Compound 329] | > 45 µM | > 45 µM
COc1ccc(C2CCCN2C(=O)c2cc(-c3ccc4ncoc4c3)on2)cc1 (stereo not drawn) [Compound 401] | > 45 µM | > 45 µM

Now from value to compound:

IC50 [1] | IC50 [2] | SMILES
> 45 µM | > 45 µM | O=C(c1cc(-c2ccco2)on1)N1CC2(CCCC2)C1 [Compound 245]
> 45 µM | > 45 µM | CCOc1ccc(-c2cc(C(=O)N3CCC[C@H]3c3ccccc3)no2)cc1F [Compound 443]
> 45 µM | > 45 µM | C[S+]([O-])CC(c1ccccc1)n1cc(NC(=O)c2cc(-c3ccccc3)on2)cn1 (stereo not drawn) [Compound 78]
> 45 µM | > 45 µM | O=C(Nc1cnn(Cc2cc(F)ccc2C(F)(F)F)c1)c1cc(-c2ccccc2)on1 [Compound 74]
> 45 µM | > 45 µM | O=C(c1cc(-c2ccc3c(c2)OCO3)on1)N1CC(Oc2ccccc2)C1 [Compound 208]
12 µM | > 45 µM | Cn1cccc(-c2cc(C(=O)Nc3cnn(Cc4cccc(F)c4)c3)no2)c1=O [Compound 89]
> 45 µM | > 45 µM | Cc1nn(C)c2cc(-c3cc(C(=O)N4CCCC4c4cccnn4)no3)ccc12 (stereo not drawn) [Compound 462]
> 45 µM | > 45 µM | O=C(c1cc(-c2ccco2)on1)N1CC(F)C1 [Compound 244]
> 45 µM | > 45 µM | CN1CCC(C2CCCN2C(=O)c2cc(-c3ccc4c(c3)OCO4)on2)CC1 (stereo not drawn) [Compound 424]
5.7 µM | 7 µM | O=C(Nc1cnn(Cc2ccccc2)c1)c1cc(-c2ccncc2)on1 [Compound 124, N-(1-benzyl-1H-pyrazol-4-yl)-5-(pyridin-4-yl)isoxazole-3-carboxamide]
> 45 µM | > 45 µM | O=C(c1cc(-c2ccc3c(c2)OCO3)on1)N1CCc2ccccc2C1 [Compound 260]
5.8 µM | > 45 µM | CC(C)(C)OC(=O)Nc1cc(C(=O)Nc2cnn(Cc3ccccc3)c2)no1 [Compound 181]
> 45 µM | 6.18 µM | O=C(c1cc(-c2ccc3c(c2)OCO3)on1)N1CCCC1c1ccccc1C(F)F (stereo not drawn) [Compound 331]
> 45 µM | > 45 µM | O=C(NC1CCN(Cc2ccccc2)CC1)c1cc(-c2ccco2)on1 [Compound 285]
> 45 µM | > 45 µM | N#Cc1ccccc1-c1cc(C(=O)Nc2cnn(Cc3cccc(F)c3)c2)no1 [Compound 103]
> 45 µM | > 45 µM | O=C(c1cc(-c2ccc3c(c2)OCO3)on1)N1CCC1c1ccccc1Cl (stereo not drawn) [Compound 219]
> 45 µM | > 45 µM | COc1ccc(C2CCCN2C(=O)c2cc(-c3ccc(C(F)(F)C(F)(F)F)cc3)on2)cc1 (stereo not drawn) [Compound 392]
1.6 µM | 1.5 µM | O=C(c1cc(-c2ccc(F)cn2)on1)N1CC(c2ccccc2)C1 [Compound 243, (5-(5-fluoropyridin-2-yl)isoxazol-3-yl)(3-phenylazetidin-1-yl)methanone]
> 45 µM | > 45 µM | CSCCC(c1ccccc1)n1cc(NC(=O)c2cc(-c3ccccc3)on2)cn1 (stereo not drawn) [Compound 70]
> 45 µM | 5 µM | O=C(c1cc(-c2cnccn2)on1)N1CC(c2ccccc2)C1 [Compound 259, (3-phenylazetidin-1-yl)(5-(pyrazin-2-yl)isoxazol-3-yl)methanone]
0.49 µM | > 45 µM | O=C(c1cc(-c2ccccc2)on1)N1CC(Oc2ccccc2)C1 [Compound 213]
2.04 µM | > 45 µM | O=C(Nc1cnn(Cc2cccc(F)c2)c1)c1cc(-c2ccccn2)on1 [Compound 54]
0.98 µM | > 45 µM | N#Cc1ccc(-c2cc(C(=O)Nc3cnn(Cc4ccccc4)c3)no2)cc1 [Compound 128]
2.61 µM | 3.12 µM | O=C(c1cc(-c2ccccn2)on1)N1CC(c2ccccc2)C1 [Compound 233, (3-phenylazetidin-1-yl)(5-(pyridin-2-yl)isoxazol-3-yl)methanone]
0.21 µM | > 45 µM | O=C(c1cc(-c2ccccc2)on1)N1CCN(c2cccc(F)c2)CC1 [Compound 294]
33.3 µM | > 45 µM | O=C(c1cc(-c2cccnc2)on1)N1CCC[C@H]1c1ccccc1 [Compound 405]
23 µM | 1.8 µM | COc1ccc(-c2cc(C(=O)N3CC(c4ccccc4)C3)no2)nn1 [Compound 255, (5-(6-methoxypyridazin-3-yl)isoxazol-3-yl)(3-phenylazetidin-1-yl)methanone]
